Reference: the supplement of paper PMC11061612

Columns and labels:
[1] = tested on: CAPAN-1 (Pancreatic Carcinoma); assay: combination Emax (second highest fraction inhibited in the dose matrix, 72 h); higher = more inhibition; extreme values may be limits of the assay
Summary of the method: (§1)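 After 24 hours at 37°C and 5% CO2 in 1536-well plates, cells in DMEM/F12 or RPMI plus 10% FBS received two-drug dose matrices for 72 hours. Viability came from CellTiter-Glo 2.0 luminescence and was scaled as inhibition, anchored at 0 by vehicle wells and at 1 by blank wells. Combination Emax is taken as the second-highest inhibition in the matrix, and Bliss excess as the observed combination effect less EA + EB − EA·EB, with EA and EB the single-agent effects.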

[2] = tested on: MHH-PREB-1 (B-Cell Non-Hodgkin's Lymphoma); assay: as above
Summary of the method: as §1

[3] = tested on: NCI-H69 (Small Cell Lung Carcinoma); assay: as above
Summary of the method: as §1

COLO-829 (Melanoma) = assay: as above
Summary of the method: as §1

[4] = tested on: CAL-54 (Kidney Carcinoma); assay: as above
Summary of the method: as §1

[5] = tested on: HARA (Squamous Cell Lung Carcinoma); assay: as above
Summary of the method: as §1

NB14 (Neuroblastoma) = assay: as above
Summary of the method: as §1

[6] = tested on: LU-139 (Small Cell Lung Carcinoma); assay: as above
Summary of the method: as §1

[7] = tested on: RPMI-6666 (Non-Cancerous); assay: as above
Summary of the method: as §1

[8] = tested on: SK-OV-3 (Ovarian Carcinoma); assay: as above
Summary of the method: as §1

HMV-II (Melanoma) = assay: as above
Summary of the method: as §1

[9] = tested on: SW1271 (Small Cell Lung Carcinoma); assay: as above
Summary of the method: as §1

NCI-H28 (Mesothelioma) = assay: as above
Summary of the method: as §1

[10] = tested on: KARPAS-231 (B-Cell Non-Hodgkin's Lymphoma); assay: as above
Summary of the method: as §1

[11] = tested on: HCC-15 (Squamous Cell Lung Carcinoma); assay: as above
Summary of the method: as §1

[12] = tested on: LB771-HNC (Head and Neck Carcinoma); assay: as above
Summary of the method: as §1

[13] = tested on: CAL-51 (Breast Carcinoma); assay: Bliss excess, mean over the matrix (fraction); higher = more synergy
Summary of the method: as §1

[14] = tested on: PCI-30 (Head and Neck Carcinoma); assay: as above
Summary of the method: as §1

[15] = tested on: OVCAR-8 (Ovarian Carcinoma); assay: as above
Summary of the method: as §1

[16] = tested on: RT-112 (Bladder Carcinoma); assay: as above
Summary of the method: as §1
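Wherever Bliss excess, mean over the matrix is given: after 72 h of two-drug dosing.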

SMILES | combination Emax [1] | combination Emax [2] | combination Emax [3] | combination Emax (COLO-829 (Melanoma)) | combination Emax [4] | combination Emax [5] | combination Emax (NB14 (Neuroblastoma)) | combination Emax [6] | combination Emax [7] | combination Emax [8] | combination Emax (HMV-II (Melanoma)) | combination Emax [9] | combination Emax (NCI-H28 (Mesothelioma)) | combination Emax [10] | combination Emax [11] | combination Emax [12] | Bliss excess [13] | Bliss excess [14] | Bliss excess [15] | Bliss excess [16]
Cn1cnc2c(F)c(Nc3ccc(Br)cc3Cl)c(C(=O)NOCCO)cc21 [Selumetinib] + CC(C)n1c(=O)n(C)c2cnc3cc(F)c(-c4ccc(OCCCN5CCCCC5)nc4)cc3c21 [AZD1390] (first compound max 10 µM, 7x7, partner max 0.3 µM) | 0.376 | 0.108 | 0.122 | 0.481 | 0.346 | 0.184 | 0.241 | 0.0318 | 0.368 | 0.238 | 0.719 | 0.499 | 0.262 | 0.225 | 0.421 | 0.136 | -0.0271 | -0.0208 | -0.0254 | -0.0217
COc1nnc2ccc(N3CCC(c4ccc(OCCN5CCN(C)C(=O)[C@H]5C)cc4)CC3)nn12 [AZD5153] + CC1(C)CCC(CN2CCN(c3ccc(C(=O)NS(=O)(=O)c4ccc(NCC5CCOCC5)c([N+](=O)[O-])c4)c(Oc4cnc5[nH]ccc5c4)c3)CC2)=C(c2ccc(Cl)cc2)C1 [Venetoclax] (first compound max 1 µM, 7x7, partner max 1 µM) | 0.335 | 0.481 | 0.636 | 0.226 | 0.769 | 0.654 | 0.761 | 0.948 | 0.764 | 0.383 | 0.524 | 0.57 | 0.487 | 1 | 0.329 | 0.481 | -0.0513 | -0.0894 | 0.0035 | -0.0479
Cn1cnc2c(F)c(Nc3ccc(Br)cc3Cl)c(C(=O)NOCCO)cc21 [Selumetinib] + C[C@@H]1COCCN1C2=NC(=NC(=C2)C3(CC3)[S@](=N)(=O)C)C4=C5C=CNC5=NC=C4 [AZD6738] (first compound max 10 µM, 7x7, partner max 10 µM) | 0.585 | 0.675 | 0.261 | 0.597 | 0.616 | 0.835 | 0.97 | 0.053 | 0.804 | 0.32 | 0.735 | 0.552 | 0.471 | 0.639 | 0.503 | 0.503 | 0.0209 | -0.0327 | -0.0197 | -0.0088
Cc1c2c(nn1C)CSCc1cc(n(C)n1)CSc1cc(c3ccccc3c1)OCCCc1c(C(=O)O)n(C)c3c-2c(Cl)ccc13 [AZD5991] + CC1(C)CCC(CN2CCN(c3ccc(C(=O)NS(=O)(=O)c4ccc(NCC5CCOCC5)c([N+](=O)[O-])c4)c(Oc4cnc5[nH]ccc5c4)c3)CC2)=C(c2ccc(Cl)cc2)C1 [Venetoclax] (first compound max 1 µM, 7x7, partner max 1 µM) | 0.138 | 0.13 | 0.522 | 0.213 | 0.163 | 0.294 | 1 | 0.777 | 0.911 | 0.219 | 0.151 | 0.0732 | 0.185 | 1 | 0.323 | 0.587 | 0.0481 | -0.0376 | -0.0157 | 0.057
CN(C)CCCOc1ccc(-c2ccc3ncc4c(c3c2)n(C2CCOCC2)c(=O)n4C)cn1 [AZD0156] + CCN(CCO)CCCOc1ccc2c(Nc3cc(CC(=O)Nc4cccc(F)c4)[nH]n3)ncnc2c1 [AZD2811] (first compound max 1 µM, 7x7, partner max 1 µM) | 0.137 | 0.154 | 0.673 | 0.069 | 0.134 | 0.289 | 0.857 | 0.279 | 0.551 | 0.138 | 0.164 | 0.201 | 0.149 | 0.563 | 0.665 | 0.142 | 0.0226 | -0.013 | 0.0425 | -0.0098
CC(=O)c1c(C)c2cnc(Nc3ccc(N4CCNCC4)cn3)nc2n(C2CCCC2)c1=O [Palbociclib] + Cc1c2c(nn1C)CSCc1cc(n(C)n1)CSc1cc(c3ccccc3c1)OCCCc1c(C(=O)O)n(C)c3c-2c(Cl)ccc13 [AZD5991] (first compound max 10 µM, 7x7, partner max 1 µM) | 0.245 | 0.511 | 0.471 | 0.388 | 0.583 | 0.559 | 0.822 | 0.25 | 0.73 | 0.179 | 0.625 | 0.301 | 0.413 | 0.657 | 0.247 | 0.448 | 0.0124 | -0.0224 | -0.0281 | -0.0524
Cc1nc(Nc2ncc(C(=O)Nc3c(C)cccc3Cl)s2)cc(N2CCN(CCO)CC2)n1 [Dasatinib] + CC(=O)Nc1cccc(-n2c(=O)n(C3CC3)c(=O)c3c(Nc4ccc(I)cc4F)n(C)c(=O)c(C)c32)c1 [Trametinib] (first compound max 2 µM, 7x7, partner max 1 µM) | 0.615 | 0.0875 | 0.124 | 0.672 | 0.958 | 0.531 | 0.465 | 0.0497 | 0.686 | 0.392 | 0.786 | 0.928 | 0.721 | 0.476 | 0.853 | 0.202 | -0.017 | -0.0727 | 0.0396 | -0.0344
NC1(C(=O)N[C@@H](CCO)c2ccc(Cl)cc2)CCN(c2ncnc3[nH]ccc23)CC1 [Capivasertib] + COc1nnc2ccc(N3CCC(c4ccc(OCCN5CCN(C)C(=O)[C@H]5C)cc4)CC3)nn12 [AZD5153] (first compound max 10 µM, 7x7, partner max 1 µM) | 0.358 | 0.384 | 0.829 | 0.272 | 0.775 | 0.77 | 0.884 | 0.864 | 0.815 | 0.535 | 0.588 | 0.459 | 0.453 | 0.229 | 0.626 | 0.875 | 0.0957 | 0.0406 | 0.0505 | 0.0334
Cn1cnc2c(F)c(Nc3ccc(Br)cc3Cl)c(C(=O)NOCCO)cc21 [Selumetinib] + C=CCn1c(=O)c2cnc(Nc3ccc(N4CCN(C)CC4)cc3)nc2n1-c1cccc(C(C)(C)O)n1 [AZD1775] (first compound max 10 µM, partner max 1 µM) | 0.59 | 0.777 | 0.133 | 0.481 | 0.643 | 0.919 | 1 | 0.332 | 0.829 | 0.365 | 0.812 | 0.565 | 0.433 | 0.982 | 0.612 | 0.452 | -0.0175 | -0.0183 | 0.0202 | -0.0352
CC1(C)CCC(CN2CCN(c3ccc(C(=O)NS(=O)(=O)c4ccc(NCC5CCOCC5)c([N+](=O)[O-])c4)c(Oc4cnc5[nH]ccc5c4)c3)CC2)=C(c2ccc(Cl)cc2)C1 [Venetoclax] + Cc1cc2ncnn2cc1Nc1ncc2c(n1)n(C1CCOCC1)c(=O)n2C [AZD7648] (first compound max 1 µM, 7x7, partner max 10 µM) | 0.195 | 0.178 | 0.657 | 0.143 | 0.256 | 0.572 | 0.974 | 0.439 | 0.959 | 0.353 | 0.263 | 0.202 | 0.216 | 0.808 | 0.253 | 0.271 | -0.0323 | -0.0545 | -0.0014 | 0.0066
COc1nnc2ccc(N3CCC(c4ccc(OCCN5CCN(C)C(=O)[C@H]5C)cc4)CC3)nn12 [AZD5153] + Cc1c2c(nn1C)CSCc1cc(n(C)n1)CSc1cc(c3ccccc3c1)OCCCc1c(C(=O)O)n(C)c3c-2c(Cl)ccc13 [AZD5991] (first compound max 1 µM, 7x7, partner max 1 µM) | 0.417 | 0.461 | 0.507 | 0.514 | 0.729 | 0.741 | 0.934 | 0.91 | 0.804 | 0.413 | 0.76 | 0.512 | 0.465 | 0.941 | 0.535 | 0.915 | 0.0291 | -0.0218 | 0.0205 | 0.0039
CCN(CCO)CCCOc1ccc2c(Nc3cc(CC(=O)Nc4cccc(F)c4)[nH]n3)ncnc2c1 [AZD2811] + C[C@@H]1COCCN1C2=NC(=NC(=C2)C3(CC3)[S@](=N)(=O)C)C4=C5C=CNC5=NC=C4 [AZD6738] (first compound max 1 µM, 7x7, partner max 10 µM) | 0.442 | 0.797 | 0.726 | 0.219 | 0.666 | 0.816 | 0.998 | 0.299 | 0.833 | 0.547 | 0.313 | 0.595 | 0.533 | 0.825 | 0.824 | 0.46 | 0.0075 | -0.0516 | -0.0192 | -0.0581
COc1cccc(OCCCN)c1-c1cc(Nc2cnc(C#N)cn2)n[nH]1 [Prexasertib] + Cc1cc2ncnn2cc1Nc1ncc2c(n1)n(C1CCOCC1)c(=O)n2C [AZD7648] (first compound max 1 µM, 7x7, partner max 10 µM) | 0.585 | 0.947 | 0.583 | 0.398 | 0.821 | 0.953 | 1 | 0.504 | 0.959 | 0.842 | 0.525 | 0.678 | 0.639 | 0.984 | 0.333 | 0.596 | 0.0069 | -0.0227 | 0.0125 | -0.0357
